Where “and” joins values, the source holds several entries; their conditions need not be identical. Identical values can stand only once. Counter-ions that a name gives are not always drawn. Like-named read-outs stand apart in the source and are kept apart here.
Experiments:
[1] = in vivo; cited from earlier work
[2] = system: V79 Chinese hamster lung cells; details: intracellular concentration for an SER of 1.6, hypoxic cells; no experiment described; cited from earlier work
[3] = Acute aerobic and hypoxic cytotoxicity (colony formation); format: cell-based, Chinese hamster; details: chinese hamster, aerobic v79 cells, V79 cells, aerobic, 1 hour, 37° C.; 50% inhibition of clonogenicity
Protocol: (§1) Samples of V79 Chinese hamster lung cells used in the following experiments were prepared as follows. V79 cells, exponentially growing as monolayer cultures in RPMI 1640 medium (Mediatech) supplemented with 10% fetal calf serum, were trypsinized, centrifuged for 5 min, harvested, then suspended in 25 ml Erlenmeyer flasks fitted with rubber caps at 5×10^5 cells/ml (5 ml). Individual flasks either were shaken (100 rpm) at 37° C. under aerobic conditions or made hypoxic by gassing with a 95% N2 (nitrogen)/5% CO2 (carbon dioxide) humidified gas mixture for 1 hour.
(§2) To determine the fraction of surviving cells, samples were removed, diluted and plated to provide 2×10^2 to 2×10^4 cells/well on 60 mm Linbro multi-well plates (Flow Laboratories, McLean, Virginia). The plates were incubated at 37° C. for 6 days, stained with crystal violet and examined for colony formation. Colonies of 50 cells or greater were counted. Each plotted point in FIGS. 1 and 2 represent the mean of three or four replicate experiments.

[4] = system: V79 Chinese hamster lung cells; assay: as above; format: cell-based; details: V79 cells, 1 hour, 37° C.; for IC50: Cricetulus griseus, V79, 1 h, hypoxia, 50% inhibition of clonogenicity
Protocol: as §1, §2

[5] = system: V79 Chinese hamster lung cells; assay: Radiosensitization of V79 cells; format: cell-based; details: for EC (SER 1.6): Cricetulus griseus; for maximum SER value: hypoxic V79 cells, 100 μM for THNLA-1, non-toxic concentrations for others; for Therapeutic index (ThI): IC50/A,1h /C1.6: in vitro, V79 cells, hydrochloride
Protocol: as §1
Radiosensitization studies were performed on V79 cells in a manner similar to the acute toxicity experiments, except that the survival fraction was determined after a predetermined radiation dose. […] One Gy is equal to 100 rads, wherein one rad is the quantity of ionizing radiation that results in the absorption of 100 ergs of energy per gram of irradiated material. Hypoxia was maintained throughout irradiation. […] Sensitization enhancement ratios (SER) were determined at a 10% survival level. […] The plotted points in FIGS. 3 and 4 represent the mean of 2 or 3 replicate experiments.

V79 cells [6] = assay: Isoeffective to the oxygen dose (IsD); format: cell-based, Chinese hamster; details: Cricetulus griseus, V79, 1 h
Text: The survival fraction under hypoxic conditions (plotted versus compound concentration) meets the aerobic survival fraction (radiation toxicity) at the IsD. The IsD value is a useful indicator of the overall potency of a compound as a sensitizer and cytotoxin of hypoxic cells. IsD is especially useful when comparing different compounds for hypoxic cytotoxicity and radiosensitizing efficacy.
FIGS. 5 and 6 illustrate the IsD at 7.5 Gy (FIG. 5A) and 20 Gy (FIG. 5B). FIGS. 5A and 6A include a comparison to the prior art NLA-1 compound. V79 cells were irradiated at 7.5 Gy or 20 Gy after a 1 hour exposure under hypoxia (symbols) or air (straight line), at various drug concentrations. No toxicity or radiosensitization for any tested compound was observed under aerobic conditions over the tested concentration ranges. IsD values were calculated from the intersections of the survival fractions of the hypoxic curves with the survival fraction in air. All data points in FIGS. 5 and 6 represent the mean of two replicate experiments.

[7] = Partition coefficient in octanol/water; format: physicochemical
Protocol: The partition coefficient of the hypoxia selective cytotoxins of the present invention were determined by the method of T. Fujita et al., J. Am. Chem. Soc., 86, 5175-5180 (1964), incorporated herein by reference.

V79 cells [8] = assay: Chemosensitization to L-PAM or cis-DDP in V79 cells; format: cell-based, Chinese hamster; details: V79 cells
Protocol: L-PAM, also known as phenylalanine mustard and available from Sigma Chem. Co., St. Louis, Mo., first was dissolved in an ethanolic solution of HCl (0.5N). The ethanolic HCl solution was buffered with propylene glycol in a 1:9 ratio of ethanolic HCl solution to propylene glycol, and finally diluted 100 fold with suspension medium. cis-DDP, a platinum-based chemotherapeutic agent available from Sigma Chem. Co., St. Louis, Mo., was dissolved in water to a predetermined concentration.
Experiments using a simultaneous addition of the sensitizer and chemotherapeutic agent for 1 hour at 37° C. under aerobic conditions were also performed.
In all experiments, controls for the hypoxic cytotoxicity of the sensitizer and the toxicity of the chemotherapeutic alone were included. Survival curves were normalized for the hypoxic cytotoxicity of sensitizer in order to determine the dose modification factor (DMF), i.e., the ratio of chemotherapeutic agent concentrations required to reduce cell survival to a predetermined level (e.g., 0.5) alone or in combination with a sensitizer. Synergism between the chemotherapeutic agent and the chemosensitizer was determined using the fractional product concept which is applied in instances of independent action of drugs, or by isobologramic analysis. The results of the chemosensitization studies are illustrated in FIGS. 12-15.

calf thymus Topo I = target: T1, calf thymus Topo I (Bos taurus, UniProt F1MN93); assay: Topoisomerase I interaction (relaxation of supercoiled DNA); format: biochemical
T1 construct: purchased TopoGEN, Inc., Columbus, Ohio; host or cells: calf thymus
T1 sequence (F1MN93 1-767): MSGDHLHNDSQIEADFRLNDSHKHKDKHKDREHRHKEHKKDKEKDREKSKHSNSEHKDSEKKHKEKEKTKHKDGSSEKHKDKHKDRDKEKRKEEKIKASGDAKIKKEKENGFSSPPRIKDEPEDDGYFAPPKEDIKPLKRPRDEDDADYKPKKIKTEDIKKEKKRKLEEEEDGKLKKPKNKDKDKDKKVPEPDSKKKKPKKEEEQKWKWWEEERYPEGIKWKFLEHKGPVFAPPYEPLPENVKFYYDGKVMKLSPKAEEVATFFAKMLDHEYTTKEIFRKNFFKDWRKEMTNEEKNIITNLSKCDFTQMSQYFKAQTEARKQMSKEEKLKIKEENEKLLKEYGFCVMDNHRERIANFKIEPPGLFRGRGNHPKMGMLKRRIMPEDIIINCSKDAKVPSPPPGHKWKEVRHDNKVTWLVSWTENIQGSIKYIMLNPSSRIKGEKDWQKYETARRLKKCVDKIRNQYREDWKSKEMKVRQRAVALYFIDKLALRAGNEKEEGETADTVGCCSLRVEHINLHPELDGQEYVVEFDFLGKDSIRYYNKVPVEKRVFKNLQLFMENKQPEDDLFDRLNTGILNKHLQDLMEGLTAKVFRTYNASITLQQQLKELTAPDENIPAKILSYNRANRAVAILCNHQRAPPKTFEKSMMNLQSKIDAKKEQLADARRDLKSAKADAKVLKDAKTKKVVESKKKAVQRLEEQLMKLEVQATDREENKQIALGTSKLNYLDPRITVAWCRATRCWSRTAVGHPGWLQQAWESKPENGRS
Protocol: In particular, a Topo I drug screening kit (TopoGEN, Inc., Columbus, Ohio) was used to assay the topoisomerase I THNLA-1 interaction. […] Camptothecin is a Topoisomerase I poison used as an anticancer drug. Camptothecin stabilizes the Topo I-DNA cleavable complex, and therefore prevents the resealing of DNA by Topo-I.
Individual reaction mixtures were heated for 30 minutes at 37° C. on a heating block, and then 2 μl of 10% SDS - proteinase K solution was added to each reaction mixture. The resulting reaction mixtures then were heated for an additional 30 minutes at 37° C. The reaction mixtures in a loading buffer were extracted with CHCl3 prior to submarine electrophoresis on a 1% agarose gel. The DNA bands were observed visually by staining with ethidium bromide (0.5 μg/ml).

human Topo II = assay: Topoisomerase II interaction (decatenation of kinetoplast DNA); format: biochemical; details: up to 1 mM
Protocol: A Topo II assay kit (TopoGEN, Inc., Columbus, Ohio) also was used to assay the topoisomerase II--THNLA-1 interaction. […] Individual reaction mixtures were heated for 30 minutes at 37° C. on a heating block, and then 2 μl of a 10% SDS-proteinase K solution was added to each reaction mixture. The resulting reaction mixtures then were heated for an additional 30 minutes at 37° C. After addition of a 0.1 volume of loading buffer, the reaction mixtures were extracted with CHCl3 prior to submarine electrophoresis on a 1% agarose gel containing ethidium bromide (0.5 μg/ml).

supercoiled DNA = assay: DNA intercalation by agarose gel electrophoresis (mobility of supercoiled DNA); format: binding; details: electrophoretic gel, up to millimolar concentrations
Text: An agarose gel electrophoresis technique was used to determine whether THNLA-1 intercalates DNA. Compounds that strongly intercalate DNA retard DNA mobility during agarose gel electrophoresis due to unwinding and extension of the dsDNA.

DNA = details: cited from earlier work
mammalian cell cultures = details: cited from earlier work
[9] = cited from earlier work
hypoxic cells = details: cited from earlier work
[10] = V79, 1 h, read-out: Hypoxic radiosensitizing potency: C1.6, concentration yielding an SER of 1.6, hypoxic V79 cells
[11] = V79, read-out: Intracellular concentration at C1.6: C1.6i, hypoxic radiosensitization, V79 cells (tables)

O=C(Cn1ccnc1[N+](=O)[O-])NCCO [etanidazole]
dose administrable to humans relative to MISO [1]: about a threefold higher dose than MISO
neurotoxicity [1]: less neurotoxic

COCC(O)Cn1ccnc1[N+](=O)[O-] (centres unmarked) [MISO]
C1.6i of comparison sensitizers [2]: 0.70 mM
neurotoxicity [1]: significant neurotoxicity

O=[N+]([O-])c1nccn1CC(O)CN1CCCCC1 (centres unmarked) [pimonidazole]
C1.6i of comparison sensitizers [2]: 0.69 mM
dose administrable to humans relative to MISO [1]: total dose limitation similar to MISO

O=[N+]([O-])c1nccn1CCCNc1c2c(nc3ccccc13)CCC2 [NLCPQ-1, 9-[3-(2-nitro-1-imidazolyl)propylamino]cyclopenten[b]quinoline hydrochloride]
IC50 at 1 h [3]: 170 µM
IC50 [4]: 22 µM
EC (SER 1.6) [5, 10]: 7 µM
EC (SER 1.6) [5, 11]: 209 µM
maximum SER value [5]: equal to OER
Therapeutic index (ThI): IC50/A,1h /C1.6 [5]: 25
EC (isoeffective to oxygen at 7.5 Gy) (V79 cells [6]; read-out: Isoeffective to the oxygen dose at 7.5 Gy: IsD(7.5)): 25.5 µM
Partition coefficient in octanol/water: PCo/w [7]: 0.30
logP ([7]; read-out: Partition coefficient in octanol/water: PCo/w (converted)): -0.523
chemosensitization to L-PAM or cis-DDP (V79 cells [8]): strong chemosensitizers
solubility (Water solubility): ~11 mM

CN1CCc2nc3ccccc3c(NCCCn3ccnc3[N+](=O)[O-])c2C1 [MeN-THNLA-1, 10-[3-(2-nitroimidazolyl)propylamino]-2-methyl-1,2,3,4-tetrahydro-benzo[b]-1,6-naphthyridine hydrochloride]
IC50 at 1 h [3]: 426 µM
IC50 [4]: 196 µM
Hypoxic selectivity (differential aerobic/hypoxic toxicity): IC50/A,1h /IC50/H,1h [4]: 2.2
EC (SER 1.6) [5, 10]: 59 µM
EC (SER 1.6) [5, 11]: 586 µM
maximum SER value [5]: equal to OER
Therapeutic index (ThI): IC50/A,1h /C1.6 [5]: about 7
relative radiosensitizing potency ([5]; on the basis of C1.6i values): more potent radiosensitizer than NLA-1, miso and pimonidazole
EC (isoeffective to oxygen at 20 Gy) (V79 cells [6]; read-out: Isoeffective to the oxygen dose at 20 Gy: IsD): ~127 µM
Partition coefficient in octanol/water: PCo/w ([7]; hydrochloride): 0.40 and 0.41
formation of nicked DNA with Topo I (calf thymus Topo I; in Topo I test): no formation of nicked DNA was observed
inhibition of Topo I-induced relaxation (calf thymus Topo I; supercoiled DNA): only partially inhibited Topo I
inhibition of Topo II-induced decatenation of kinetoplast DNA (human Topo II): did not inhibit the action of Topoisomerase II on kinetoplast DNA
effect on mobility of supercoiled DNA (supercoiled DNA): do not affect the mobility of supercoiled DNA
solubility (Water solubility): ~20 mM

CN(C)CCCNc1c2ccccc2nc2cccc([N+](=O)[O-])c12 [nitracrine, 1-nitro-acridine]
DNA dissociation kinetics / intercalation (DNA): faster dissociation kinetics from DNA than the other nitroacridine isomers
potency as radiation sensitizer / hypoxia selective cytotoxin (mammalian cell cultures): potent hypoxia selective cytotoxin and a radiation sensitizer
potency as radiation sensitizer / hypoxia selective cytotoxin (mammalian cell cultures; listed as 1-nitracrine): twenty times more potent as a sensitizer than other nitracrine isomers tested
metabolism in vivo [9]: rapid metabolism

O=[N+]([O-])c1nccn1CC(O)CN1CC1 (centres unmarked) [RSU-1069]
activity relative to MISO (hypoxic cells; experimental systems): substantially greater activity than MISO
fold lower toxic concentration for hypoxic versus aerobic cells (hypoxic cells; in vitro): ~100 fold
